We go through one compound from patent US11123354B2, “Method for the treatment of osteoarthritis” (ABIOGEN PHARMA S.P.A., priority 2016, dated 2021).

A short description of the series: Pharmacokinetics and knee joint localization of 14C-Chlodronate after single intra-articular injection. The settings on record: for residual concentration in femoral articular cartilage / residual concentration in femoral articular cartilage as % of the value measured at t=30 minutes: first order exponential approximation; for radioactivity in Femoral Articular Cartilage / radioactivity in Tibial Articular Cartilage: osteoarthritic rats, single i.a. 0.1 mg (2 mg/ml). The format is in vivo, rat. On the procedure:
In this study the pharmacokinetics of ^14C-Chlodronate was evaluated, and the localization of the labeled compound in the knee joint following a single intra-articular injection of 0.1 mg of ^14C-Chlodronate, administered as aqueous solution in a concentration of 2 mg/ml, in sham and osteoarthritic rat models was verified.
The pharmacokinetic parameters of ^14C-Chlodronate were determined by measuring the radioactivity of blood samples collected at different timepoints from the time of injection.
The localization of the labeled compound in the knee joint was determined by leg x-rays. The fitting of radioactivity concentrations, expressed in μCi/g, was performed by using standard curves.

[1] abbreviates: about two weeks after the injection.
The mark [2] stands for this setting: osteoarthritis rat model, 30 minutes from the injection.

Some results are limits rather than exact numbers.

For `O=P(O)(O)[14C](Cl)(Cl)P(=O)(O)O` [^14C-Chlodronate], the “radioactivity mean value in the cartilage” value (168 hours (7 days) after the injection) is recorded as “about 25 μCi/g”. Moreover, the “radioactivity in cartilage as % of the value found half an hour after the injection” value (168 hours after the injection) was “more than 62%”. In addition, the “residual concentration in femoral articular cartilage” value by setting is: (about 1 month after injection) “about 8.78 μCi/g”; under setting [1], “about 18.92 μCi/g”. Further, the “residual concentration in femoral articular cartilage as % of the value measured at t=30 minutes” value is “about 24.27%” (about 1 month after injection) and “about 44.36%” under setting [1]. For the same compound, the “concentration in both femoral and tibial cartilage relative to the value measured at t=30 minutes” value (about two weeks after the injection, first order exponential approximation of Table 7 data) was > 40%. For the same compound, where the note is “after a few hours from the injection”, the “concentration of 14C-Chlodronate in the blood” value is “very modest, practically negligible”. Moreover, the “radioactivity in Femoral Articular Cartilage” value by setting is: (t = 30 minutes) 42.649 μCi/g; (t = 6 hours) 36.163 μCi/g; (t = 24 hours) 34.712 μCi/g; (t = 72 hours) 25.561 μCi/g; (t = 168 hours) 28.020 μCi/g. Besides, the “radioactivity in Tibial Articular Cartilage” value by setting is: (t = 30 minutes) 36.935 μCi/g; (t = 6 hours) 27.299 μCi/g; (t = 24 hours) 27.840 μCi/g; (t = 72 hours) 22.331 μCi/g; (t = 168 hours) 21.165 μCi/g. Moreover, the “radioactivity concentration in the articular cartilage” value under setting [2] is given as “about 40 μCi/g”. Besides, the “radioactivity concentration in the synovial cavity and in the femoral and tibial bone” value under setting [2] is “lower than 1 μCi/g”.
